Results taken from patent US20210015881A1 (priority 2016, published 2021).

What was measured:
[1] = tested on: cardiac arrhythmia caused by barium chloride; assay: Cardiac arrhythmia caused by barium chloride; type: in vivo, rats
Protocol: The study was conducted in 60 white outbred rats. […] Out of 15 control animals, which received barium chloride at a dose of 20 mg/kg, […] of the rats died.
Rhythm disturbances were mostly of a ventricular type, in the form of ventricular bigeminy, trigeminy, group extrasystoles, transient ventricular standstill, flutter and ventricular fibrillation. In addition, various types of conduction disorders and increased ST segment above contours were observed.
Intravenous administration of the studied substances at doses of 0.05-0.1 mg/kg 10 min prior to the injection of barium chloride prevented the development of arrhythmias in 60-90% of rats. Antiarrhythmic effect of the studied substances combines with antitoxic effect against lethality from barium chloride.

aconitic arrhythmia = settings: for effect on baseline heart rate and contraction (intervals R-R, PQ, QT): i.v. at doses that provide antiarrhythmic effect in 50% of rats; for antiarrhythmic activity and range of antiarrhythmic action, comparison: active doses 5-10 minutes prior to i.v. aconitine
Protocol: The study was conducted in anesthetized white outbred rats. The objective of the experiment was to study the efficiency of intravenous administration of the studied substances and known antiarrhythmic agents in the model of aconitic arrhythmia in anesthetized rats.
The studied substances and medicinal products for comparison were administered in active doses 5-10 minutes prior to intravenous administration of aconitine.

[2] = tested on: threshold of pain irritation; assay: Infiltration anesthesia in rabbits, method of Bullbring-Vida; type: in vivo; settings: 0.5% solution
Protocol: The ability of the medicinal product to cause infiltration anesthesia was studied in rabbits by the method of Bullbring-Vida (pain method).
(§1) The time of anesthesia onset, its depth and duration were determined. Activity of the studied substances at topical anesthesia was compared to dicaine; at infiltration anesthesia-to novocaine.

corneal reflex = assay: Terminal (topical) anesthesia of the rabbit eye, method of Rainier-Valet; type: in vivo, rabbits
Protocol: The local anesthetic effect of the studied substances was investigated in 10 rabbits. The effect on terminal anesthesia was investigated by the method of Rainier-Valet, by identifying the corneal reflex to mechanical irritation every 5-10 min after instillation of 2 drops of 0.1%-0.25%-0.5% solutions of the studied substances.
as §1

SMILES: CCN(CC)CCNC(=O)c1ccc(N)cc1 [Procainamide]
- antiarrhythmic and antitoxic activity, comparison ([1]; barium chloride model of ventricular type arrhythmia): weakest antiarrhythmic and antitoxic activity

SMILES: CCN(CC)CC(=O)Nc1c(C)cccc1C [Lidocaine]
- duration of effect, comparison (aconitic arrhythmia; i.v., active doses prior to aconitine): shortest effect

SMILES: CCN(CC)CCOC(=O)c1ccc(N)cc1 [novocaine]
- duration of local anesthetic effect [2]: about 90 min

SMILES: CCCCNc1ccc(C(=O)OCCN(C)C)cc1 [dicaine]
- average duration of terminal anesthesia of the rabbit eye (corneal reflex; 0.1%): 37 min
- average duration of terminal anesthesia of the rabbit eye (corneal reflex; 0.5%): 52 min
- onset of terminal anesthesia of the rabbit eye (corneal reflex; concentrations of 0.1% and 0.5%): 1 to 2 min

SMILES: C=C[C@H]1C[N@@]2CC[C@H]1C[C@@H]2[C@@H](O)c1ccnc2ccc(OC)cc12 [Quinidine]
- effect on baseline heart rate and contraction (intervals R-R, PQ, QT) (aconitic arrhythmia): inhibition of the baseline heart rate and contraction
- antiarrhythmic and antitoxic effect compared with substances 1-9 at 0.05 mg/kg and 0.1 mg/kg ([1]; 5 mg/kg and 10 mg/kg): approximately similar

SMILES: COc1ccc(CCN(C)CCCC(C#N)(c2ccc(OC)c(OC)c2)C(C)C)cc1OC (centres unmarked) [Verapamil]
- antiarrhythmic activity and range of antiarrhythmic action, comparison (aconitic arrhythmia; i.v.): least effective

SMILES: CCOC(=O)Nc1ccc2c(c1)N(C(=O)CCN1CCOCC1)c1ccccc1S2 [Etmozin]
- effect on baseline heart rate and contraction (intervals R-R, PQ, QT) (aconitic arrhythmia): inhibition of the baseline heart rate and contraction
- antiarrhythmic activity and range of antiarrhythmic action, comparison (aconitic arrhythmia; i.v.): most efficient among the reference antiarrhythmic agents
